Experimental data reported in patent publication US20030073699A1, “Compounds and methods to treat cardiac failure and other disorders” (priority 1998, published 2003).

How the values were obtained:
Assay type in all cases: biochemical
[1] = molecular target: p38α (Homo sapiens, UniProt Q16539); assay: p38 kinase inhibition assay, activity for p38α; conditions: for IC50: inhibition of p38α, based on IC50 curves; for Fold increase Piperidinyl/Piperazinyl: p38α potency of piperidinyl versus corresponding piperazinyl compound
[2] = molecular target: p38 kinase (Homo sapiens, UniProt Q16539); assay: Assay for p38 kinase inhibition (Example 19); conditions: tested as described in Example 19
Procedure: (§1) The compounds to be tested were solubilized in DMSO and diluted into water to the desired concentrations. The p38 kinase was diluted to 10 μg/ml into a buffer containing 20 mM MOPS, pH 7.0,25 mM beta-glycerol phosphate, 2 mg/ml gelatin; 0.5 mM EGTA, and 4 mM DTT.
(§2) The reaction was carried out by mixing 20 μl test compound with 10 μl of a substrate cocktail containing 500 μg/ml peptide substrate and 0.2 mM ATP (+200 μCi/ml gamma-32P-ATP) in a 4× assay buffer. The reaction was initiated by the addition of 10 μl of p38 kinase. […] After a 40 minute incubation at room temperature, the reaction was stopped by the addition of 10 μl per reaction of 0.25 M phosphoric acid.
A portion of the reaction was spotted onto a disk of P81 phosphocellulose paper, the filters were dried for 2 minutes and then washed 4× in 75 mM H3PO4. The filters were rinsed briefly in 95% ethanol, dried, then placed in scintillation vials with liquid scintillation cocktail. […]
Counts incorporated are determined on a scintillation counter. Relative enzyme activity is calculated by subtracting background counts (counts measured in the absence of enzyme) from each result, and comparing the resulting counts to those obtained in the absence of inhibitor. IC50 values were determined with curve-fitting plots available with common software packages. Approximate IC50 values were calculated using formula […]

[3] = molecular target: p38β (Homo sapiens, UniProt Q15759); assay: p38 kinase inhibition assay, specificity versus p38β; conditions: for IC50: read-out: P38-β IC50; for IC50 ratio β/α: specificity for p38α as compared to p38β
Procedure: as §1, §2
A portion of the reaction was spotted onto a disk of P81 phosphocellulose paper, the filters were dried for 2 minutes and then washed 4× in 75 mM H3PO4. The filters were rinsed briefly in 95% ethanol, dried, then placed in scintillation vials with liquid scintillation cocktail.
Alternatively, the substrate is previously biotinylated and the resulting reactions are spotted on SAM^2™ streptavidin filter squares (Promega). The filters are washed 4× in 2M NaCl, 4× in 2M NaCl with 1% phosphoric acid, 2× in water, and briefly in 95% ethanol. The filter squares are dried and placed in scintillation vials with liquid scintillation cocktail.
Counts incorporated are determined on a scintillation counter. Relative enzyme activity is calculated by subtracting background counts (counts measured in the absence of enzyme) from each result, and comparing the resulting counts to those obtained in the absence of inhibitor. IC50 values were determined with curve-fitting plots available with common software packages. Approximate IC50 values were calculated using formula
where A=fractional activity and i=total inhibitor concentration.
The compounds of the invention as well as those containing piperazine, generally, are specific for p38α as compared to p38β. […] It is seen that the specificity for α as opposed to β is generally of the order of ten-fold.

Sequence of p38β (Q15759 whole entry): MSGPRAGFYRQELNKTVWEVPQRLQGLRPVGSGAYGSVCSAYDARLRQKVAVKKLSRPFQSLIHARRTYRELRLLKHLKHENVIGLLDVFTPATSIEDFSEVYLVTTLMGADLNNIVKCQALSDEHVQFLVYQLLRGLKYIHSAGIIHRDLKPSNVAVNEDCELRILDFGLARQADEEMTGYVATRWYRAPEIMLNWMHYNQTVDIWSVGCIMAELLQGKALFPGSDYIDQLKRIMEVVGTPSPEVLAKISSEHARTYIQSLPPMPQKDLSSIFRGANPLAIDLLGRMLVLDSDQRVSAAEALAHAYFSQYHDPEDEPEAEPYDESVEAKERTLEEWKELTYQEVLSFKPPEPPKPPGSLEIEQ
Sequence of p38α (Q16539 whole entry): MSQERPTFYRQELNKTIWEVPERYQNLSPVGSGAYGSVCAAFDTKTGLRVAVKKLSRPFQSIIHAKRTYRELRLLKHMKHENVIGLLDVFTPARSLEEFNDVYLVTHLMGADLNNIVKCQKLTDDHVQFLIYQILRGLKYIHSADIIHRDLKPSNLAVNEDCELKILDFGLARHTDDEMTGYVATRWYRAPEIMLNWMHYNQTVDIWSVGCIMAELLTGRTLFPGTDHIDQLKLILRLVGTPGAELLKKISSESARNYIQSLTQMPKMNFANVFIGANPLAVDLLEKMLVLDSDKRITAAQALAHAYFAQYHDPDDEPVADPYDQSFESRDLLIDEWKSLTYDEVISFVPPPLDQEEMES
Sequence of p38 kinase (Q16539 whole entry): as above

Row | Compound | IC50 [1] [nM] | IC50 [2] [nM] | IC50 [3] [µM] | IC50 ratio β/α [3] | Fold increase Piperidinyl/Piperazinyl [1]
1 | 4-(4-benzyl piperazinyl)-indole-2-carboxamide [Piperazinyl 2] | > 30000 |  |  |  | 
2 | CC1CC(Cc2ccccc2)CCN1C(=O)c1ccc2[nH]ccc2c1 (stereo not shown) [Example 18] |  | 280 |  |  | 
3 | O=C(c1c[nH]c2ccccc12)N1CCN(Cc2ccccc2)CC1 [Piperazinyl 3, reference compound] | 4740 |  | 34 | 7.17 | 
4 | O=C(c1cccc2cc[nH]c12)N1CCN(Cc2ccccc2)CC1 [Piperazinyl 7] | > 30000 |  |  |  | 
5 | O=C(c1c[nH]c2ccccc12)N1CCC(Cc2ccccc2)CC1 [Piperidinyl 3] | 163 |  | 1.77 | 10.9 | 29.1
6 | O=C(c1ccc2[nH]ccc2c1)N1CCC(Cc2ccccc2)CC1 [Piperidinyl 5, 4-benzylpiperidinyl-indole-5-carboxamide] | 150 |  | 3.02 |  | 
7 | O=C(c1ccc2cc[nH]c2c1)N1CCC(Cc2ccccc2)CC1 [Piperidinyl 6, 4-benzylpiperidinyl-indole-6-carboxamide] |  |  | 3.83 |  | 
8 | O=C(c1cccc2cc[nH]c12)N1CCC(Cc2ccccc2)CC1 [Piperidinyl 7] | 7040 |  |  |  | >4.3

More lines, main results first:

Row | IC50 [1] [nM] | IC50 [2] [nM] | IC50 [3] [µM] | IC50 ratio β/α [3] | Compound | Fold increase Piperidinyl/Piperazinyl [1]
9 | 1540 |  | 24 | 15.6 | O=C(c1cccc2[nH]ccc12)N1CCN(Cc2ccccc2)CC1 [Piperazinyl 4, reference compound] | 
10 |  |  | 25.8 | 15.1 | O=C(c1ccc2[nH]ccc2c1)N1CCN(Cc2ccccc2)CC1 [Piperazinyl 5] | 
11 | 5520 |  | 39.1 | 7.08 | O=C(c1ccc2cc[nH]c2c1)N1CCN(Cc2ccccc2)CC1 [Piperazinyl 6] | 
12 | 2660 |  |  |  | O=C(c1cc2ccccc2[nH]1)N1CCC(Cc2ccccc2)CC1 [Piperidinyl 2] | 
13 | 159 |  | 2.43 | 15.3 | O=C(c1cccc2[nH]ccc12)N1CCC(Cc2ccccc2)CC1 [Piperidinyl 4, 4-benzylpiperidinyl-indoie-4-carboxamide] | 9.7
